This is an account of results in ChEMBL document CHEMBL4616649, “Genomics-Metabolomics Profiling Disclosed Marine Vibrio spartinae 3.6 as a Producer of a New Branched Side Chain Prodigiosin” (2020).

One may read the MIC as the lowest concentration found to suppress growth. What is called MIC50 is an inhibitory concentration at the 50% level, which refers to growth in some studies and to a panel of isolates in others.

What all share (assay type): functional
Assay [1] deals with Staphylococcus epidermidis. Put plainly: Antibacterial activity against Staphylococcus epidermidis ATCC 35984 assessed as reduction in microbial growth after 20 hrs by microdilution method. The following applies: ATCC 35984, 20 h. For orientation: Dilution methods test growth across graded concentrations, often in twofold steps.
The test system of assay [2] is Staphylococcus aureus. Put plainly: Antibacterial activity against Staphylococcus aureus ATCC 23235 assessed as reduction in microbial growth after 20 hrs by microdilution method. The following applies: ATCC 23235, 20 h.
For assay [3], the system named is Stenotrophomonas maltophilia. Put plainly: Antibacterial activity against Stenotrophomonas maltophilia ATCC 700475 assessed as reduction in microbial growth after 20 hrs by microdilution method. As to conditions: ATCC 700475, 20 h.
In assay [4] the test system is Staphylococcus aureus. Put plainly: Antibacterial activity against Staphylococcus aureus ATCC 29213 assessed as reduction in microbial growth after 20 hrs by microdilution method. The following applies: ATCC 29213, 20 h.
The test system of assay [5] is Stenotrophomonas maltophilia. Put plainly: Antibacterial activity against Stenotrophomonas maltophilia ATCC 13636 assessed as reduction in microbial growth after 20 hrs by microdilution method. The following applies: ATCC 13636, 20 h.
For another assay, the system named is Listeria monocytogenes. Put plainly: Antibacterial activity against Listeria monocytogenes MB677 assessed as reduction in microbial growth after 20 hrs by microdilution method. The following applies: MB677, 20 h.
In assay [6] the test system is Staphylococcus aureus. Put plainly: Antibacterial activity against Staphylococcus aureus 6538P assessed as reduction in microbial growth after 20 hrs by microdilution method.
Assay [7] concerns Stenotrophomonas maltophilia. Put plainly: Antibacterial activity against Stenotrophomonas maltophilia ATCC 13637 assessed as reduction in microbial growth after 20 hrs by microdilution method. As to conditions: ATCC 13637, 20 h.

Take `CCCCCC1=C/C(=C\c2[nH]c(-c3ccc[nH]3)cc2OC)N=C1C`: the MIC is 2 µg/mL in assay [1]; 1.3 µg/mL in the assay on Staphylococcus aureus [2]; 2.7 µg/mL in assay [3]; 3.3 µg/mL with Staphylococcus aureus [4]; 1.7 µg/mL in assay [5]; 1.7 µg/mL with Listeria monocytogenes. In addition, the MIC (in the assay on Staphylococcus aureus [6]; in assay [7]) was 1.7 µg/mL in each case. For the same molecule, the MIC50 in assay [1] came to 0.33 µg/mL; in the assay with Staphylococcus aureus [2], 0.06 µg/mL; in assay [3], 0.5 µg/mL; with Staphylococcus aureus [4], 0.05 µg/mL; in assay [5], 0.13 µg/mL; in the assay on Listeria monocytogenes, 0.16 µg/mL. Further, the values for the MIC50 (in the assay with Staphylococcus aureus [6]; in assay [7]) were 0.04 µg/mL and 0.66 µg/mL, respectively.

On to `COc1cc(-c2ccc[nH]2)[nH]c1/C=C1/C=C(CCCCC(C)C)C(C)=N1`, for which the MIC in assay [1] came to 27 µg/mL; in the assay on Staphylococcus aureus [2], 21 µg/mL; in assay [3], 27 µg/mL; with Staphylococcus aureus [4] it was 27 µg/mL; in assay [5], 27 µg/mL; in the assay on Listeria monocytogenes, 21 µg/mL. For the same molecule, the MIC in the assay with Staphylococcus aureus [6] is 21 µg/mL; in assay [7], 27 µg/mL. Moreover, the MIC50 in assay [1] turned out to be 2.7 µg/mL; in the assay on Staphylococcus aureus [2], 0.5 µg/mL; in assay [3], 4 µg/mL; in the assay with Staphylococcus aureus [4] it was 0.5 µg/mL; in assay [5], 3.3 µg/mL; in the assay on Listeria monocytogenes, 3.3 µg/mL. In addition, the figures for the MIC50 (with Staphylococcus aureus [6]; in assay [7]) were 0.2 µg/mL and 3.3 µg/mL, respectively.

With `COc1cc(-c2ccc[nH]2)[nH]c1/C=C1\N=C(C)C2=C1C(C)CCC2` (stereo not drawn), the MIC was found to be 3.3 µg/mL in assay [1]; 3.3 µg/mL with Staphylococcus aureus [2]; 5.3 µg/mL in assay [3]; 4 µg/mL in the assay with Staphylococcus aureus [4]; 3.3 µg/mL in assay [5]; 4 µg/mL with Listeria monocytogenes. For the same molecule, the MIC (with Staphylococcus aureus [6]; in assay [7]) was 3.3 µg/mL in each case. In addition, the MIC50 turned out to be 0.5 µg/mL in assay [1]; 0.08 µg/mL in the assay with Staphylococcus aureus [2]; 1.7 µg/mL in assay [3]; 0.06 µg/mL in the assay on Staphylococcus aureus [4]; 1 µg/mL in assay [5]; 0.4 µg/mL in the assay on Listeria monocytogenes. The MIC50 was found to be 0.05 µg/mL with Staphylococcus aureus [6] and 2 µg/mL in assay [7].

As to `CC1(C)S[C@@H]2[C@H](NC(=O)[C@H](N)c3ccccc3)C(=O)N2[C@H]1C(=O)O` [AMPICILLIN], in the assay on Listeria monocytogenes, the MIC was 0.8 µg/mL.

In the case of `O=C(N[C@H](CO)[C@H](O)c1ccc([N+](=O)[O-])cc1)C(Cl)Cl` [CHLORAMPHENICOL], the MIC in assay [3] turned out to be 4 µg/mL; in assay [5], 4 µg/mL; in assay [7], 3.3 µg/mL.

With `CN[C@H](CC(C)C)C(=O)N[C@H]1C(=O)N[C@@H](CC(N)=O)C(=O)N[C@H]2C(=O)N[C@H]3C(=O)N[C@H](C(=O)N[C@H](C(=O)O)c4cc(O)cc(O)c4-c4cc3ccc4O)[C@H](O)c3ccc(c(Cl)c3)Oc3cc2cc(c3O[C@@H]2O[C@H](CO)[C@@H](O)[C@H](O)[C@H]2O[C@H]2C[C@](C)(N)[C@H](O)[C@H](C)O2)Oc2ccc(cc2Cl)[C@H]1O` [VANCOMYCIN], the MIC with Staphylococcus aureus [6] turned out to be 1.7 µg/mL.
